Data: US9840513B2 (AbbVie S.à.r.l., priority 2015, dated 2017)

Target: T1, F508delCFTR cell surface expression in CFBE41o-F508delCFTR-HRP cells (Homo sapiens, UniProt P13569, DEL508-508)
T1 construct: fused on or other part: Horseradish peroxidase (HRP) reporter inserted in the fourth exofacial (extracellular) loop of CFTR; expression is doxycycline-inducible
Test: Cell Surface Expression-Horse Radish Peroxidase (CSE-HRP) Assay
Assay type: cell-based
Details: for EC50: CFBE41o-F508delCFTR-HRP cells, 18-24 hours at 33° C., 8-point curve, highest concentration 20 μM; for Maximum % activity (%): maximum at any tested concentration, normalized to on-plate positive control (3 μM)
In short: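 Correctors incubated 18-24 h at 33 °C on doxycycline-induced (0.5 μg/mL, 72 h) CFBE41o-F508delCFTR-HRP cells, 3-fold series from 20 μM. After DPBS washes, luminol luminescence read; activity expressed relative to DMSO and a 3 μM positive control, EC50 fitted from triplicate plates.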

T1 sequence (P13569 with tags, fused parts or gaps DEL508-508 limits assumed): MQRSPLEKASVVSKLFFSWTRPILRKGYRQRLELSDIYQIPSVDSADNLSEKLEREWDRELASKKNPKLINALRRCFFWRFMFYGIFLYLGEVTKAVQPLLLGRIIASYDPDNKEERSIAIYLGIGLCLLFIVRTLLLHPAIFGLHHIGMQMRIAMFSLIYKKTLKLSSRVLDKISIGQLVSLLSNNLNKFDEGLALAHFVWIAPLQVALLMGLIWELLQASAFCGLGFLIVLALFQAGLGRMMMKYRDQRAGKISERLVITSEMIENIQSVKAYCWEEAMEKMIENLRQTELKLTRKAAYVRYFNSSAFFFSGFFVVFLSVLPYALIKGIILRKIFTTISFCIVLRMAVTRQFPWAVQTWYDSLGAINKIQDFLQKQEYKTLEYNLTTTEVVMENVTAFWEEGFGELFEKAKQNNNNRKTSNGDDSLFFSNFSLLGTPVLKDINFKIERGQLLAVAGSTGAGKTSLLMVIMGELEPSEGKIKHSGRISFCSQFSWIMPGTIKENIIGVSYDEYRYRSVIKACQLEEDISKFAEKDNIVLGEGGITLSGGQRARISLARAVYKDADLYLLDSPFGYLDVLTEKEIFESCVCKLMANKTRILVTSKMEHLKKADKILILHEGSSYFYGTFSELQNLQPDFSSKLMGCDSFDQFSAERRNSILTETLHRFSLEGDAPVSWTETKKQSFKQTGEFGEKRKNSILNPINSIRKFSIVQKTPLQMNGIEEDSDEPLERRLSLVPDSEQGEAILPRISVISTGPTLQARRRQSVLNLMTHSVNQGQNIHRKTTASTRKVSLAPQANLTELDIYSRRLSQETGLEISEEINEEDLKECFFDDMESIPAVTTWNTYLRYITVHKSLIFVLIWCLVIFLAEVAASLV
T1 sequence (P13569 919-1480 limits assumed, stated change not applied): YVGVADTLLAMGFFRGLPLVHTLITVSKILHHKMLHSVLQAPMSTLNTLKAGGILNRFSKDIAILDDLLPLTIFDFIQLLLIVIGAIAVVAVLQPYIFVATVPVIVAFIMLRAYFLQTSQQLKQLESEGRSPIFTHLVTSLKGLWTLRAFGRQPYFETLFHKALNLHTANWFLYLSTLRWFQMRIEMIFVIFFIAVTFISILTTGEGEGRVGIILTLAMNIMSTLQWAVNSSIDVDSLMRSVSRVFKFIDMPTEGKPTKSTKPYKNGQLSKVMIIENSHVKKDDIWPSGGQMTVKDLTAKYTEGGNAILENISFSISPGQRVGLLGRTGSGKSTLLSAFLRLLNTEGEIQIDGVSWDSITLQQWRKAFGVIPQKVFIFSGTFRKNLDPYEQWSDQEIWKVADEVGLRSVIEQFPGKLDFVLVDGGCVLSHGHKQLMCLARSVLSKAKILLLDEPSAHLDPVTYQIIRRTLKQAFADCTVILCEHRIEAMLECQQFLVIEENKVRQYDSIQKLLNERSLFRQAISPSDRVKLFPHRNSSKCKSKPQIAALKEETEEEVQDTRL

Row | EC50 [nM] | Maximum % activity (%) | SMILES
1 | 915 | 103 | COc1ccc2c(c1)O[C@H]([C@H]1CC[C@H](C(=O)O)CC1)C[C@@H]2NC(=O)[C@@]1(C)COc2cc3c(cc21)OC(F)(F)O3 [Example 154, trans-4-[(2S,4S)-4-{[(7R)-2,2-difluoro-7-methyl-6,7-dihydro-2H-furo[2,3-f][1,3]benzodioxole-7-carbonyl]amino}-7-methoxy-3,4-dihydro-2H-1-benzopyran-2-yl]cyclohexane-1-carboxylic acid]
2 | 90 | 142 | CCOC(=O)[C@H]1CC[C@H]([C@H]2C[C@@H](NC(=O)[C@@]3(C)COc4cc5c(cc43)OC(F)(F)O5)c3ccc(OC(F)F)cc3O2)CC1 [Example 156, ethyl trans-4-[(2R,4R)-7-(difluoromethoxy)-4-{[(7R)-2,2-difluoro-7-methyl-6,7-dihydro-2H-furo[2,3-f][1,3]benzodioxole-7-carbonyl]amino}-3,4-dihydro-2H-1-benzopyran-2-yl]cyclohexane-1-carboxylate]
3 | 168 | 117 | CCOC(=O)[C@H]1CC[C@@H]([C@H]2C[C@@H](NC(=O)[C@@]3(C)COc4cc5c(cc43)OC(F)(F)O5)c3ccc(OC(F)(F)F)cc3O2)CC1 [Example 157, ethyl cis-4-[(2R,4R)-4-{[(7R)-2,2-difluoro-7-methyl-6,7-dihydro-2H-furo[2,3-f][1,3]benzodioxole-7-carbonyl]amino}-7-(trifluoromethoxy)-3,4-dihydro-2H-1-benzopyran-2-yl]cyclohexane-1-carboxylate]
4 | 3670 | 111 | CCOC(=O)[C@H]1CC[C@@H]([C@@H]2C[C@H](NC(=O)[C@@]3(C)COc4cc5c(cc43)OC(F)(F)O5)c3ccc(OC(F)(F)F)cc3O2)CC1 [Example 158, ethyl cis-4-[(2S,4S)-4-{[(7R)-2,2-difluoro-7-methyl-6,7-dihydro-2H-furo[2,3-f][1,3]benzodioxole-7-carbonyl]amino}-7-(trifluoromethoxy)-3,4-dihydro-2H-1-benzopyran-2-yl]cyclohexane-1-carboxylate]
5 | 1020 | 82 | CCOC(=O)[C@H]1CC[C@H]([C@@H]2C[C@H](NC(=O)[C@@]3(C)COc4cc5c(cc43)OC(F)(F)O5)c3ccc(OC(F)F)cc3O2)CC1 [Example 159, ethyl trans-4-[(2S,4S)-7-(difluoromethoxy)-4-{[(7R)-2,2-difluoro-7-methyl-6,7-dihydro-2H-furo[2,3-f][1,3]benzodioxole-7-carbonyl]amino}-3,4-dihydro-2H-1-benzopyran-2-yl]cyclohexane-1-carboxylate]
6 | 5090 | 101 | C[C@]1(C(=O)N[C@H]2C[C@@H]([C@H]3CC[C@@H](C(=O)O)CC3)Oc3cc(OC(F)(F)F)ccc32)COc2cc3c(cc21)OC(F)(F)O3 [Example 161, cis-4-[(2S,4S)-4-{[(7R)-2,2-difluoro-7-methyl-6,7-dihydro-2H-furo[2,3-f][1,3]benzodioxole-7-carbonyl]amino}-7-(trifluoromethoxy)-3,4-dihydro-2H-1-benzopyran-2-yl]cyclohexane-1-carboxylic acid]
7 | 810 | 75 | C[C@]1(C(=O)N[C@H]2C[C@@H]([C@H]3CC[C@H](C(=O)O)CC3)Oc3cc(OC(F)F)ccc32)COc2cc3c(cc21)OC(F)(F)O3 [Example 163, trans-4-[(2S,4S)-7-(difluoromethoxy)-4-{[(7R)-2,2-difluoro-7-methyl-6,7-dihydro-2H-furo[2,3-f][1,3]benzodioxole-7-carbonyl]amino}-3,4-dihydro-2H-1-benzopyran-2-yl]cyclohexane-1-carboxylic acid]
8 | 106 | 122 | CCOC(=O)C1([C@H]2C[C@@H](NC(=O)[C@@]3(C)COc4cc5c(cc43)OC(F)(F)O5)c3ccc(OC(F)(F)F)cc3O2)CC1 [Example 164, ethyl 1-[(2R,4R)-4-{[(7R)-2,2-difluoro-7-methyl-6,7-dihydro-2H-furo[2,3-f][1,3]benzodioxole-7-carbonyl]amino}-7-(trifluoromethoxy)-3,4-dihydro-2H-1-benzopyran-2-yl]cyclopropane-1-carboxylate]
9 | 2640 | 85 | CCOC(=O)C1([C@@H]2C[C@H](NC(=O)[C@@]3(C)COc4cc5c(cc43)OC(F)(F)O5)c3ccc(OC(F)(F)F)cc3O2)CC1 [Example 165, ethyl 1-[(2S,4S)-4-{[(7R)-2,2-difluoro-7-methyl-6,7-dihydro-2H-furo[2,3-f][1,3]benzodioxole-7-carbonyl]amino}-7-(trifluoromethoxy)-3,4-dihydro-2H-1-benzopyran-2-yl]cyclopropane-1-carboxylate]
10 | 1260 | 107 | C[C@@]1(C(=O)N[C@@H]2C[C@H]([C@H]3CC[C@H](C(=O)O)CC3)Oc3cc(OC(F)(F)F)ccc32)CCc2cc3c(cc21)OC(F)(F)O3 [Example 169, trans-4-[(2R,4R)-4-{[(5R)-2,2-difluoro-5-methyl-6,7-dihydro-2H,5H-indeno[5,6-d][1,3]dioxole-5-carbonyl]amino}-7-(trifluoromethoxy)-3,4-dihydro-2H-1-benzopyran-2-yl]cyclohexane-1-carboxylic acid]
11 | 1260 | 65 | C[C@]1(C(=O)Nc2cc3cc(C4(CO)CCOCC4)n(C[C@@H](O)CO)c3cc2F)COc2cc3c(cc21)OC(F)(F)O3 [Example 170, (7R)—N-{1-[(2R)-2,3-dihydroxypropyl]-6-fluoro-2-[4-(hydroxymethyl)oxan-4-yl]-1H-indol-5-yl}-2,2-difluoro-7-methyl-6,7-dihydro-2H-furo[2,3-f][1,3]benzodioxole-7-carboxamide]
12 | 90 | 132 | COc1ccc2c(c1)O[C@@H](c1cnc(CO)cn1)C[C@H]2NC(=O)[C@@]1(C)COc2cc3c(cc21)OC(F)(F)O3 [Example 173, (7R)-2,2-difluoro-N-{(2R,4R)-2-[5-(hydroxymethyl)pyrazin-2-yl]-7-methoxy-3,4-dihydro-2H-1-benzopyran-4-yl}-7-methyl-6,7-dihydro-2H-furo[2,3-f][1,3]benzodioxole-7-carboxamide]
13 | 270 | 118 | COc1ccc2c(c1)O[C@@H](c1ccc(Br)nc1)C[C@H]2NC(=O)[C@@]1(C)COc2cc3c(cc21)OC(F)(F)O3 [Example 176, (7R)—N-[(2R,4R)-2-(6-bromopyridin-3-yl)-7-methoxy-3,4-dihydro-2H-1-benzopyran-4-yl]-2,2-difluoro-7-methyl-6,7-dihydro-2H-furo[2,3-f][1,3]benzodioxole-7-carboxamide]
14 | 20 | 124 | COc1ccc2c(c1)O[C@@H](c1ccc(C(C)=O)cn1)C[C@H]2NC(=O)[C@@]1(C)COc2cc3c(cc21)OC(F)(F)O3 [Example 180, (7R)—N-[(2R,4R)-2-(5-acetylpyridin-2-yl)-7-methoxy-3,4-dihydro-2H-1-benzopyran-4-yl]-2,2-difluoro-7-methyl-6,7-dihydro-2H-furo[2,3-f][1,3]benzodioxole-7-carboxamide]
